These compounds were tested against AAK1 (amino acids T27-A365) (Homo sapiens (Human), UniProt Q2M2I8) (assay: AAK1 pSENs assay). Conditions: ratio of AAK1 pSENs activity to GAK pSENs activity.
Type: biochemical
Procedure: The recombinant proteins were independently expressed in Esherichia coli BL21(DE3) cells cultured in Luria-Bertani (LB) medium until OD600 reached 0.6-0.8, then cooled to 15° C., and supplemented with 0.5 mM isopropyl 1-thio-D-galactopyranoside (IPTG) induce protein expression 16 h. Cells were harvested and resuspended in lysis buffer (50 mM HEPES pH 7.5, 500 mM NaCl, 5 mM imidazole, 5% glycerol, 0.5 mM Tris (2-carboxyethyl) phosphine (TCEP), cOmplete Protease Inhibitor Tablet (Roche)) and lysed by microfluidics high pressure homogenizer (UH-06, Union-Biotech). Proteins were purified using Ni-Affinity chromatography (His FF column, Bestchrom) and eluted stepwise in binding buffer with 20-300 mM imidazole. Removal of the hexahistidine tag was performed at 4° C. overnight using recombinant TEV protease and reacted with BirA to obtain the corresponding biotinylated-AAK1. BIKE or GAK proteins. Further separated in the reverse Strep column (Strep-Tactin® XT, IBA). The Biotin elution sample was collected containing untagged biotinylated protein was then purified by Ion-exchange chromatography (Mono Q 10/100 GL, Cytiva) and Size-exclusion chromatography (HiLoad 16/600 Superdex 200 pg, Cytiva). The pure protein was stored in a storage buffer 50 mM HEPES (pH 7.5), 300 mM NaCl, 5% glycerol at −80° C. Protein were characterized by SDS-PAGE. LC-MS and aSEC.
This example describes one illustrative method for determining the IC50 of the compounds of the present invention against AAK1 (amino acids T27-A365). AAK1 protein was dissolved at 20 nM in 1× enzyme solution (50 mM HEPES pH7.5, 10 mM MgCl2, 1 mM DTT, 1% glycerol, 0.5 mM EGTA, 0.01% Briji35, 0.02% BSA) and 12.5 ul was incubated with 250 nl DMSO or 250 nl compound in DMSO at 25° C. for 15 min. The reaction was started by addition of 12.5 ul of 30 uM AQT0759 (Assayquant, CSKS-AQT0759B) and 70 uM ATP which were diluted in 1× substrate dilution buffer (50 mM HEPES pH7.5, 10 mM MgCl2, 1 mM DTT, 1% glycerol, 0.5 mM EGTA, 0.01% Briji35).

AAK1 (amino acids T27-A365), sequence (Q2M2I8 27-365): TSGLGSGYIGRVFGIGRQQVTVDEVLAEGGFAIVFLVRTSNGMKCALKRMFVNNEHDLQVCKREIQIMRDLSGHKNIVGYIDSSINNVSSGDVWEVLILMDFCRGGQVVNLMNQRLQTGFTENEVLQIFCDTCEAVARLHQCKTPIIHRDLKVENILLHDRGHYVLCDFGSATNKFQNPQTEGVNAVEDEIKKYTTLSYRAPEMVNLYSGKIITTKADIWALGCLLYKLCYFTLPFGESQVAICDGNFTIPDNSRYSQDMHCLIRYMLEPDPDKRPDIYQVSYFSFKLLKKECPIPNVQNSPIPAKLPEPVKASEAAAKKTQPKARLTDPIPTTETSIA

Row | SMILES | AAK1:GAK pSENs Selectivity
1 | COc1ncccc1-c1cnn2ccc(NCCN(C)C(=O)O[C@H]3CO[C@H]4OCC[C@H]43)nc12 [Compound I-70, (3R,3aS,6aR)-hexahydrofuro[2,3-b]furan-3-yl (2-((3-(2-methoxypyridin-3-yl)pyrazolo[1,5-a]pyrimidin-5-yl)amino)ethyl)(methyl)carbamate] | B (B: 0.016-0.075)
2 | c1cc2nc(N3CCNCC3)ccn2n1 [Compound I-105, 5-piperazin-1-ylpyrazolo[1,5-a]pyrimidine] | E (E: >1.00)
3 | CC1(OC(=O)N2CCN(c3ccn4ncc(-c5cccnc5OC5CC5)c4n3)CC2)CCNC1 (centres unmarked) [Compound I-13-5, (3-Methylpyrrolidin-3-yl) 4-[3-[2-(cyclopropoxy)-3-pyridyl]pyrazolo [1,5-a]pyrimidin-5-yl]piperazine-1-carboxylate] | B (B: 0.016-0.075)
4 | CC(C)(C)OC(=O)N1CCN(c2ccn3ncc(-c4cccnc4O)c3n2)CC1 [Compound I-102, tert-butyl 4-[3-(2-hydroxy-3-pyridyl)pyrazolo[1,5-a]pyrimidin-5-yl]piperazine-1-carboxylate] | A (A: ≤0.015)
5 | C#C[C@]1(OC(=O)N2CCN(c3ccn4ncc(-c5cccnc5OC5CC5)c4n3)CC2)CCNC1 [Compound I-15, [(3R)-3-Ethynylpyrrolidin-3-yl]-4-[3-[2-(cyclopropoxy)-3-pyridyl]pyrazolo[1,5-a]pyrimidin-5-yl]piperazine-1-carboxylate] | B (B: 0.016-0.075)
6 | O=C1C[C@H](OC(=O)N2CCN(c3ccn4ncc(-c5cccnc5NC5CC5)c4n3)CC2)CN1 [Compound I-45, [(3S)-5-Oxopyrrolidin-3-yl]4-[3-[2-(cyclopropylamino)-3-pyridyl]pyrazolo[1,5-a]pyrimidin-5-yl]piperazine-1-carboxylate] | E (E: >1.00)
7 | CC1(OC(=O)N2CCN(c3ccn4ncc(-c5ccc(C(N)=O)cc5)c4n3)CC2)COC1 [Compound I-3, (3-methyloxetan-3-yl)-4-[3-(4-carbamoylphenyl)pyrazolo[1,5-a]pyrimidin-5-yl]piperazine-1-carboxylate] | B (B: 0.016-0.075)
8 | CC(C)Oc1ncccc1-c1cnn2ccc(N3CCN(C(=O)OC4(C)CCNC4)CC3)nc12 (centres unmarked) [Compound I-21-5, (3-Methylpyrrolidin-3-yl)-4-[3-(2-isopropoxy-3-pyridyl)pyrazolo[1,5-a]pyrimidin-5-yl]piperazine-1-carboxylate] | B (B: 0.016-0.075)
9 | CN(CCNc1ccn2ncc(-c3cccnc3OC3CC3)c2n1)C(=O)OC(C)(C)C [Compound I-12, tert-butyl N-[2-[[3-[2-(Cyclopropoxy)-3-pyridyl]pyrazolo[1,5-a]pyrimidin-5-yl]amino]ethyl]-N-methyl-carbamate] | A (A: ≤0.015)
10 | Clc1cnn2ccc(N3CCNCC3)nc12 [Compound I-104, 3-chloro-5-piperazin-1-yl-pyrazolo[1,5-a]pyrimidine] | E (E: >1.00)
11 | C[C@@]1(OC(=O)N2CCN(c3ccn4ncc(-c5cccnc5OC5CC5)c4n3)CC2)CCNC1 [Compound I-14, [(3R)-3-Methylpyrrolidin-3-yl]-4-[3-[2-(cyclopropoxy)-3-pyridyl]pyrazolo[1,5-a]pyrimidin-5-yl]piperazine-1-carboxylate] | A (A: ≤0.015)
12 | CN1C[C@@H](OC(=O)N2CCN(c3ccn4ncc(-c5cc(OC(F)(F)F)cnc5OC5CC5)c4n3)CC2)CC1=O [Compound I-88] | B (B: 0.016-0.075)
13 | COc1cnc(OC2CC2)c(-c2cnn3ccc(N4CCN(C(=O)O[C@H]5CC(=O)N(C)C5)CC4)nc23)c1 [Compound I-87] | A (A: ≤0.015)
14 | C#CC1(OC(=O)N2CCN(c3ccn4ncc(-c5cccnc5OC5CC5)c4n3)CC2)CCNC1 (centres unmarked) [Compound I-16-7, 3-ethynylpyrrolidin-3-yl-4-(3-(2-cyclopropoxypyridin-3-yl)pyrazolo[1,5-a]pyrimidin-5-yl)piperazine-1-carboxylate] | B (B: 0.016-0.075)

— patent publication US20250270222A1, “AP2 ASSOCIATED KINASE 1 INHIBITORS AND USES THEREOF” (Satellos Bioscience Inc., priority 2023, published 2025)
